{"source": "patent US12419869B2", "about": "“Methods of treating multiple sclerosis” (Vanda Pharmaceuticals Inc., priority 2021, dated 2025)", "key": {"male and female rats": {"test_system": "male and female rats", "assay": "Fertility studies in male and female rats, oral", "format": "in vivo, rat", "experimental": "Plasma ponesimod exposures (AUC) at the highest dose tested were approximately 10 (males) and 30 (females) times that in humans at the recommended human dose (RHD) of 20 mg/day."}, "heart rate": {"test_system": "heart rate", "assay": "Heart rate pharmacodynamics, dose dependence", "set-up": "species or system human", "settings": "in vivo", "experimental": "PONVORY causes a transient dose-dependent reduction in heart rate (HR) and AV conduction delays upon treatment initiation [see Warnings and Precautions (5.2)]. The heart rate decreases plateaued at doses greater than or equal to 40 mg [2 times the recommended maintenance dosage], and bradyarrhythmic events (AV blocks) were detected at a higher incidence under PONVORY treatment, compared to placebo. This effect starts within the first hour of dosing and is maximal at 2-4 hours post-dose. HR generally returns to pre-dose values by 4-5 hours post-dose on Day 1, and the effect diminishes with repeated administration. indicating tolerance."}, "[1]": {"assay": "Animal studies of blood-brain-barrier passage", "format": "in vivo", "description": "Ponesimod is highly bound to plasma proteins (>99%) and is mainly (78.5%) distributed in the plasma fraction of whole blood."}, "pregnant rabbits": {"test_system": "pregnant rabbits", "assay": "Embryofetal development study in pregnant rabbits, oral", "format": "in vivo", "description": "No maternal toxicity was observed."}, "[2]": {"test_system": "P-gp, BCRP, OATP1B1, or OATP1B3 transporters", "assay": "Transporter substrate assessment", "format": "in vitro ADME", "description": "Drugs that are inhibitors of these transporters are unlikely to impact the PK of ponesimod."}, "[3]": {"assay": "Oral toxicity studies of 13 to 52 weeks in dogs, coronary arterial lesions", "format": "in vivo, dog", "settings": "dog, in vivo; 13 to 52 weeks oral", "experimental": "(§1) At the NOAEL (2 mg/kg/day) for these findings, plasma exposures (AUC) were approximately 2 times that expected in humans at the RHD."}, "dogs": {"test_system": "dogs", "assay": "Oral toxicity studies of 13 to 52 weeks in dogs, coronary arterial lesions", "format": "in vivo, dog", "settings": "dogs", "experimental": "as §1"}}, "data": [{"smiles": "CCC/N=C1\\S/C(=C\\c2ccc(OC[C@H](O)CO)c(Cl)c2)C(=O)N1c1ccccc1C", "note": "[Ponesimod, (R)-5-[3-chloro-4-(2,3-dihydroxy-propoxy)-benz[Z]ylidene]-2-([Z]-propylimino)-3-o-tolyl-thiazolidin-4-one]", "values": [{"measurement": "Effects on fertility in rats", "setting": "male and female rats; 0, 10, 30, or 100 mg/kg/day oral", "result": "no effects on fertility"}, {"measurement": "Plasma exposure (AUC) at highest dose relative to humans at RHD, females", "setting": "male and female rats; 100 mg/kg/day", "result": "~30", "unit": "times"}, {"measurement": "Plasma exposure (AUC) at highest dose relative to humans at RHD, males", "setting": "male and female rats; 100 mg/kg/day", "result": "approximately 10 times"}, {"measurement": "Dose at which heart rate decreases plateaued", "setting": "heart rate", "result": "greater than or equal to 40 mg"}, {"measurement": "Blood-brain-barrier passage", "setting": "[1]", "result": "readily crosses the blood-brain-barrier"}, {"measurement": "Embryofetal findings in rabbits", "setting": "pregnant rabbits; 0, 0.25, 1, or 4 mg/kg/day oral, at highest dose", "result": "an increase in post-implantation loss and fetal variations"}, {"measurement": "No-effect dose for adverse effects on embryofetal development in rabbits", "setting": "pregnant rabbits; rabbit, in vivo", "result": 1, "unit": "mg/kg/day"}, {"measurement": "Plasma exposure at no-effect dose vs humans at RHD", "setting": "pregnant rabbits; rabbits", "result": "lower than that in humans"}, {"measurement": "Substrate of P-gp, BCRP, OATP1B1, or OATP1B3 transporters", "setting": "[2]", "result": "not a substrate"}, {"measurement": "NOAEL", "setting": "[3]", "result": 2, "unit": "mg/kg/day"}, {"measurement": "Plasma exposures (AUC) at NOAEL relative to humans at RHD", "setting": "dogs", "result": "approximately 2 times"}]}]}
